Reference: publication PMC11258189, “Estrogenic, androgenic, and genotoxic activities of zearalenone and deoxynivalenol in in vitro bioassays including exogenous metabolic activation” (Mycotoxin Research, 2024)
Where two headings read alike, the source gives them in different places.

Tests used:
[1] = tested on: estrogen receptor (ER)
[2] = tested on: estrogen receptor (ER); assay type: cell-based, human
[3] = biological target: T1, human androgen receptor (Homo sapiens, UniProt P10275); assay type: cell-based
T1 construct: host or cells: Chinese hamster ovary (CHO) cells, AR-EcoScreen GR KO M1, stably transfected, glucocorticoid receptor knocked out
T1 sequence (P10275 1-920): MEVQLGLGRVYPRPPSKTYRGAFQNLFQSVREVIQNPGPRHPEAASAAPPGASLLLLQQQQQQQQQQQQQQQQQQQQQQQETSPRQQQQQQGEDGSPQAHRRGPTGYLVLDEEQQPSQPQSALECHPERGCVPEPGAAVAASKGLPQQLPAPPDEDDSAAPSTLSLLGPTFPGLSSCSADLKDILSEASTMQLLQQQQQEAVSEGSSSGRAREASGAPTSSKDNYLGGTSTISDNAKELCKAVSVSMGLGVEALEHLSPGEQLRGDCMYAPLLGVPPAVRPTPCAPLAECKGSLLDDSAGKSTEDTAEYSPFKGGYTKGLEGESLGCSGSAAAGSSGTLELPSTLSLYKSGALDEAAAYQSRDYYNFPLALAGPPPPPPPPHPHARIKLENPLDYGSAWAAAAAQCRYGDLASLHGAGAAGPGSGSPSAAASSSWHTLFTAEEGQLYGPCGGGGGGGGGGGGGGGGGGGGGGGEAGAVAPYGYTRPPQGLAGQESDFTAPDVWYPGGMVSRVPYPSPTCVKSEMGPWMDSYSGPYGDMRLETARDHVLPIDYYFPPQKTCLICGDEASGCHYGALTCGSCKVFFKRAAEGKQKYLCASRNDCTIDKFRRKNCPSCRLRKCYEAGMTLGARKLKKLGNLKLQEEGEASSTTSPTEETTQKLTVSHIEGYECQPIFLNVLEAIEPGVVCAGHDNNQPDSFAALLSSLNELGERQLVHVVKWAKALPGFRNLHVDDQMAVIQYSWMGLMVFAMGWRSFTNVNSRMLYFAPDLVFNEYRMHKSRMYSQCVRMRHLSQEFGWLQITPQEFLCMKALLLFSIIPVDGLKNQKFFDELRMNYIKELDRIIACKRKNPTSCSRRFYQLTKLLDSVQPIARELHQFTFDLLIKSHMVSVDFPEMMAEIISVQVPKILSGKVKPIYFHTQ

[4] = biological target: T1, human androgen receptor; assay type: cell-based; remark: listed apart in the source
[5] = set-up: method as in Drzymala et al. [2015]; details: ref Drzymala et al. [2015]; cited from earlier work
[6] = tested on: TK6 cells; set-up: method as in Takakura et al. [2014]; details: concentrations below 12.5 µM, 3 h of treatment, with or without human and rat liver S9; ref Takakura et al. [2014]; cited from earlier work
[7] = tested on: TK6 cells; details: for Micronuclei formation (% MN) versus vehicle controls: 5 h exposure, alone, with S9 alone or S9 with cofactors, ZEN 6.25 and 12.50 µM, DON 0.78 and 1.56 µM; for Micronuclei formation (% MN) versus vehicle control: non-cytotoxic test concentrations
[8] = set-up: method as in Drzymala et al. [2014]; details: rat liver microsomes, presence of NADPH, after 60 min; ref Drzymala et al. [2014]; cited from earlier work
[9] = tested on: AR; set-up: method as in Molina-Molina et al. [2014]; details: ref Molina-Molina et al. [2014], cited from earlier work; for AR antagonistic effect IC50: androgen-sensitive PALM cells
[10] = DON compounds, S9 + PHI + PHII cofactors
[11] = DON compounds, S9 + PHII cofactors
[12] = DON compounds, S9 alone, [95% CI]
[13] = DON compounds, no MAS, [95% CI]
[14] = without exogenous MAS, initial concentration-range finding trials, 24 h
[15] = DON compounds, S9 + PHI + PHII cofactors, [95% CI]
[16] = DON compounds, S9 + PHII cofactors, [95% CI]
[17] = 24 h continuous exposure, without MAS
[18] = ZEN compounds, S9 + PHI + PHII cofactors, [95% CI]
[19] = ZEN compounds, S9 + PHI cofactors, [95% CI]
[20] = ZEN compounds, S9 alone, [95% CI]
[21] = ZEN compounds, no MAS (S9 −, PHI −, PHII −), [95% CI]
[22] = ZEN compounds, no MAS, [95% CI]

CC(=O)O[C@@H]1C[C@]2(C)[C@@]3(CO)[C@H](O)C(=O)C(C)=C[C@H]3O[C@H]1[C@@]21CO1 [3-Ac-DON, 3-acetyl deoxynivalenol]
Estrogenicity relative to α-ZEL (times lower) [1]: ~10^5 times | ER agonism EC10 [1, 10]: <LOD | ER agonism EC10 [1, 11]: <LOD | ER agonism EC10 [1, 12]: 0.53 [0.49,0.59] µM | ER agonism EC10 [1, 13]: 0.45 [0.41,0.49] µM | ER agonism, response as % of the maximum response of E2 in the assay ([1]; without MAS): 30% | ER bioassay EC10 (estrogenic) ([1]; without MAS, abstract): 310 nM | ER agonism EC10 [1, 14]: 310,000 pM | ER antagonism IC30 [2, 15]: <LOD | ER antagonism IC30 [2, 16]: <LOD | ER antagonism IC30 [2, 12]: <LOD | ER antagonism IC30 [2, 13]: <LOD | ER antagonism IC30 [2, 14]: <LOD | AR antagonism IC30 [3, 10]: <LOD | AR antagonism IC30 [3, 11]: <LOD | AR antagonism IC30 ([3]; DON compounds, S9 alone): <LOD | AR antagonism IC30 ([3]; DON compounds, no MAS): <LOD | AR antagonism IC30 [3, 14]: <LOD | AR agonism EC10 [4, 15]: 0.91 [0.65,1.35] µM | AR agonism EC10 [4, 16]: 0.63 [0.52,0.78] µM | AR agonism EC10 [4, 12]: 1.07 [0.91,1.23] µM | AR agonism EC10 [4, 13]: 1.11 [0.95,1.26] µM | AR agonism EC10 [4, 14]: 1.31 µM

CC(=O)OC[C@]12[C@H](O)C(=O)C(C)=C[C@H]1O[C@@H]1[C@H](O)C[C@@]2(C)[C@]12CO2 [15-Ac-DON, 15-acetyl deoxynivalenol]
ER agonism EC10 [1, 10]: <LOD | ER agonism EC10 [1, 11]: <LOD | ER agonism EC10 [1, 12]: <LOD | ER agonism EC10 [1, 13]: <LOD | ER agonism EC10 [1, 14]: <LOD | ER antagonism IC30 [2, 15]: 0.48 [0.30,0.72] µM | ER antagonism IC30 [2, 16]: 0.24 [0.18,0.32] µM | ER antagonism IC30 [2, 12]: 1.11 [0.81,1.38] µM | ER antagonism IC30 [2, 13]: 1.09 [0.98, 1.20] µM | ER antagonism IC30 [2, 14]: 0.99 µM | AR antagonism IC30 [3, 10]: <LOD | AR antagonism IC30 [3, 11]: <LOD | AR antagonism IC30 ([3]; DON compounds, S9 alone): <LOD | AR antagonism IC30 ([3]; DON compounds, no MAS): <LOD | AR antagonism IC30 [3, 14]: <LOD | AR agonism EC10 [4, 15]: 0.52 [0.45,0.62] µM | AR agonism EC10 [4, 16]: 0.50 [0.45,0.56] µM | AR agonism EC10 [4, 12]: 0.70 [0.62,0.76] µM | AR agonism EC10 [4, 13]: 0.81 [0.74,0.87] µM | AR agonism EC10 [4, 14]: 0.77 µM

CC1CCCC(=O)CCC/C=C/c2cc(O)c(O)c(O)c2C(=O)O1 (stereo not drawn) [15-OH-ZEN]
Estrogenic potency compared to ZEN, set at 1 [5]: 0.02

CC1=C[C@H]2O[C@@H]3[C@H](O)C[C@](C)([C@@]2(CO)[C@H](O)C1=O)[C@]31CO1 [DON, deoxynivalenol]
ER agonism EC10 [1, 10]: <LOD | ER agonism EC10 [1, 11]: <LOD | ER agonism EC10 [1, 12]: <LOD | ER agonism EC10 [1, 13]: <LOD | ER agonism EC10 [1, 14]: <LOD | MN formations [6]: did not induce any significant MN formations | ER antagonism IC30 [2, 15]: 0.37 [0.25,0.58] µM | ER antagonism IC30 [2, 16]: 0.25 [0.18,0.38] µM | ER antagonism IC30 [2, 12]: 0.75 [0.54,1.05] µM | ER antagonism IC30 [2, 13]: 0.81 [0.69,1.00] µM | ER antagonism IC30 [2, 14]: 0.91 µM | AR antagonism IC30 [3, 10]: <LOD | AR antagonism IC30 [3, 11]: <LOD | AR antagonism IC30 ([3]; DON compounds, S9 alone): <LOD | AR antagonism IC30 ([3]; DON compounds, no MAS): <LOD | AR antagonism IC30 [3, 14]: <LOD | AR agonism EC10 [4, 15]: 0.45 [0.39,0.52] µM | AR agonism EC10 [4, 16]: 0.38 [0.32,0.46] µM | AR agonism EC10 [4, 12]: 0.84 [0.72,0.98] µM | AR agonism EC10 [4, 13]: 0.87 [0.81,0.93] µM | AR agonism EC10 [4, 14]: 0.83 µM | Micronuclei formation (% MN) versus vehicle controls [7]: neither ZEN nor DON alone or with the S9 alone or with cofactors had any statistically significant effect on % MN | Micronuclei formation (% MN) versus vehicle control [7, 17]: No statistically significant increases in % MN

C[C@]12CC[C@@H]3c4ccc(O)cc4CC[C@H]3[C@@H]1CC[C@@H]2O [E2, 17β-estradiol, reference compound]
ER agonistic activity after treatment of cells with only S9 [1]: reduction of ER agonistic activity

C[C@H]1CCCC(=O)CCC/C=C/c2cc(O)cc(O)c2C(=O)O1 [ZEN, zearalenone]
ER agonism EC10 [1, 18]: 6470 pM | ER agonism EC10 [1, 19]: 984 [740,1 279] pM | ER agonism EC10 [1, 20]: 63.3 [56.2,97.2] pM | ER agonism EC10 [1, 21]: 46.5 [29.5,72.4] pM | ER agonism EC10 value range converted to a concentration range in a water sample ([1]; converted from 30–40 pM): 0.01 to 0.012 ng/mL | ER agonism EC10 converted to concentration in a water sample enriched 50 times ([1]; water sample enriched 50 times): approximately 0.2 ng/L | ER agonism EC10 [1, 14]: 30 to 40 pM | ER agonism EC10 ([1]; without exogenous MAS, initial concentration-range finding trials, 24 h, listed as Zearalenone (ZEN)): 34.07 pM | Decrease of substrate concentration to (% remaining) [8]: approximately 40% | ER antagonism IC30 [2, 19]: 10.3 [8.71,11.8] µM | ER antagonism IC30 [2, 20]: 3.41 [2.40,4.68] µM | ER antagonism IC30 [2, 22]: 2.92 [2.09,3.89] µM | ER antagonism IC30 [2, 14]: 2.85 µM | AR antagonism IC30 [3, 18]: 18.0 [13.8,23.4] µM | AR antagonism IC30 [3, 19]: 7.33 [6.31,8.13] µM | AR antagonism IC30 [3, 20]: 2.14 [1.82,2.45] µM | AR antagonism IC30 [3, 22]: 2.37 [1.95,2.75] µM | AR antagonism IC30 [3, 14]: 3.30 µM | AR agonism EC10 ([4]; ZEN compounds, S9 + PHI + PHII cofactors): <LOD | AR agonism EC10 ([4]; ZEN compounds, S9 + PHI cofactors): <LOD | AR agonism EC10 ([4]; ZEN compounds, S9 alone): <LOD | AR agonism EC10 ([4]; ZEN compounds, no MAS): <LOD | AR agonism EC10 [4, 14]: <LOD | Androgenic activities ([9]; PALM cells, 40 h of exposure, concentrations up to 10 µM): no androgenic activities were detected | AR antagonistic effect IC50 [9]: micromolar range | Micronuclei formation (% MN) versus vehicle controls [7]: neither ZEN nor DON alone or with the S9 alone or with cofactors had any statistically significant effect on % MN | Micronuclei formation (% MN) versus vehicle control [7, 17]: statistically significant increase in % MN | Test concentration with statistically significant increase in % MN (highest non-cytotoxic test concentration) ([7]; 24 h continuous exposure, without MAS, p-value of 0.0007): 12.5 µM

C[C@H]1CCC[C@H](O)CCC/C=C/c2cc(O)cc(O)c2C(=O)O1 [α-ZEL, α-Zearalenol]
Estrogenic potency relative to ZEN (times more potent) [1]: ~10 times | ER agonism EC10 [1, 19]: 49.3 [30.2,75.9] pM | ER agonism EC10 [1, 20]: 4.24 [2.82,6.31] pM | ER agonism EC10 [1, 21]: 3.70 [2.51,5.37] pM | ER agonism EC10 [1, 14]: 3.59 pM | ER antagonism IC30 [2, 18]: 5.10 [2.88,8.13] µM | ER antagonism IC30 [2, 19]: 2.42 [1.35,3.63] µM | ER antagonism IC30 [2, 20]: 1.75 [0.69,3.02] µM | ER antagonism IC30 [2, 22]: 1.03 [0.33,1.78] µM | ER antagonism IC30 [2, 14]: 1.39 µM | AR agonism EC10 [4]: <LOD | AR antagonistic effect IC50 [9]: micromolar range
